Results published in patent US9856262B2, “Analogues of 4H-pyrazolo[1,5-a] benzimidazole compound as PARP inhibitors” (HUBEI BIO-PHARMACEUTICAL INDUSTRIAL TECHNOLOGICAL INSTITUTE …, priority 2014, dated 2018).
Read-outs that look alike come from different tables or passages of the source.

Legend:
[1] = system: HCC1937 cells; experiment: Cellular PARylation assay; format: cell-based
Protocol: Cellular PARylation Assay
HCC1937 cells were planted into 96 well plates at 4×10^4 cells/well and incubated at 37° C. in an incubator overnight. After being treated with a test compound for 30 min, cells were then treated with 1 mM H2O2 for 10 min. The cells were washed with 200 ul pre-chilled PBS twice and fixed with 100 ul pre-chilled methanol/acetone (7:3) on ice for 30 min. After being air-dried, the plates were blocked using PBS-Tween blocking solution (0.05%) with dissolved 5% nonfat dry milk for 30 min at room temperature. The cells were incubated with anti-PAR antibody 10H (1:100) at room temperature for 1 hour followed by washing with PBS-Tween20 for 3 times; and then added into a blocking solution including goat anti-mouse fluorescein isothiocyanate (FITC)-coupled secondary antibody and 1 μg/mL DAPI to incubate away from light at room temperature for 1 hour. After being washed with PBS-Tween20 for 3 times, the plate was analyzed with a fluorescence microplate counter (Flexstation III, Molecular Device).

[2] = molecular target: T1, PARP-1 (Homo sapiens, UniProt P09874); experiment: PARP enzymatic assay (HT Universal Colorimetric PARP1 Assay Kit); format: biochemical; conditions: read-out: PARP-1 enzymatic inhibition IC50
T1 construct: purchased
Protocol: PARP Enzymatic Assay (Following the Manual of HT Universal Colorimetric PARP1 Assay Kit).
Histone proteins were coated on a 96-well plate and incubated overnight at 4° C. After be washed 3 times with 200 ul PBST solution, the plate was blocked with a blocking solution and incubated for 30 min at room temperature, and then washed with PBST solution 3 times. A compound to be tested was treated and added to the plate. Thereafter, 20 μl of diluted PARP1 (1 nM) or 20 μl of PARP2 (3 nM) solution was added into the reaction system and incubated for 1 or 2 hours. 50 ul of streptavidin-HRP mixture (1:50) was added into the plate and incubated for 30 min at room temperature. The plate was then washed with three times with PBST buffer. 100 μl of (HRP) (Chemiluminescent substrate A and substrate B (1:1)) was added into the plate, and the plate was immediately read on a microplate reader (Envision, PerkinElmer).

[3] = Homo sapiens, HCC1937 cells, compound 30 min then 1 mM H2O2 10 min, read-out: cellular PARylation EC50

T1 sequence (P09874 whole entry): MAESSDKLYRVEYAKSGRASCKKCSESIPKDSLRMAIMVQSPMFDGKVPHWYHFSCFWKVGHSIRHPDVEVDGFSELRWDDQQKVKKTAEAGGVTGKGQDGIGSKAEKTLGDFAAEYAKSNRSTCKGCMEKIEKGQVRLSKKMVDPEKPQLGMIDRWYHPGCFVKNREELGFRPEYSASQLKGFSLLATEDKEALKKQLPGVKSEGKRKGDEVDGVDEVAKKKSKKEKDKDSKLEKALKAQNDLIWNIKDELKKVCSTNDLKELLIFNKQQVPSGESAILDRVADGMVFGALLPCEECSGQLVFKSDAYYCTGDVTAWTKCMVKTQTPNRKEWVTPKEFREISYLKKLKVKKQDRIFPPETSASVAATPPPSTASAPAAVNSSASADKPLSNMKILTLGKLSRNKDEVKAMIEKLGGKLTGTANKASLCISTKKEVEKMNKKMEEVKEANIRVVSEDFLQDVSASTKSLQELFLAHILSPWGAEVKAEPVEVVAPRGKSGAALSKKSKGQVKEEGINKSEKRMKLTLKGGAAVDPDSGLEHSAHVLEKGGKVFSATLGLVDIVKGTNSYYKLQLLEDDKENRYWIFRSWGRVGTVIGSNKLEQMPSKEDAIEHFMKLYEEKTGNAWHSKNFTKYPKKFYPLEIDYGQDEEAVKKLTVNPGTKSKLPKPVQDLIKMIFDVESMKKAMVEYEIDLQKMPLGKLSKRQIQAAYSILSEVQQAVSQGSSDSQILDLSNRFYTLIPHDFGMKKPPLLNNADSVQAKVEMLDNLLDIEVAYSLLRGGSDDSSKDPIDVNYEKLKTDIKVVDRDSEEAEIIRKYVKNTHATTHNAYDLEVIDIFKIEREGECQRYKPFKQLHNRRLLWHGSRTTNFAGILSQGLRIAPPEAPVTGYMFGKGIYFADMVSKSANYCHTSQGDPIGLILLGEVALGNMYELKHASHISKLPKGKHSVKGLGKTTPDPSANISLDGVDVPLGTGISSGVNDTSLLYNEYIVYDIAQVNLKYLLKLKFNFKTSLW

EC50 ([1]; HCC1937 cells, compound 30 min then 1 mM H2O2 10 min, read-out: cellular PARylation EC50) [nM]	IC50 [2] [nM]	EC50 [1, 3] [nM]	SMILES	EC50 ([1]; Homo sapiens, HCC1937, read-out: cellular PARylation EC50) [nM]
–	1 to 100	101 to 1000	NC(=O)c1cc(F)cc2[nH]c3c(C4CCNCC4)cnn3c12 [Example 1, 6-fluoro-3-(piperidin-4-yl)-4H-benzo[4,5]imidazo[1,2-b]pyrazole-8-carboxamide]	–
–	1 to 100	1 to 100	CCN1CCC(c2cnn3c2[nH]c2cc(F)cc(C(N)=O)c23)CC1 [Example 2, 3-(1-ethylpiperidin-4-yl)-6-fluoro-4H-benzo[4,5]imidazo[1,2-b]pyrazole-8-carboxamide]	–
–	1 to 100	1 to 100	NC(=O)c1cc(F)cc2[nH]c3c(C4CCN(CCF)CC4)cnn3c12 [Example 3, 6-fluoro-3-(1-(2-fluoroethyl)piperidin-4-yl)-4H-benzo[4,5]imidazo[1,2-b]pyrazole-8-carboxamide]	–
–	1 to 100	1 to 100	NC(=O)c1cc(F)cc2[nH]c3c(C4CCN(C5CC5)CC4)cnn3c12 [Example 4, 3-(1-cyclopropylpiperidin-4-yl)-6-fluoro-4H-benzo[4,5]imidazo[1,2-b]pyrazole-8-carboxamide]	–
–	1 to 100	1 to 100	CN1CCC(c2cnn3c2[nH]c2cc(F)cc(C(N)=O)c23)CC1 [Example 9, 6-fluoro-3-(1-methylpiperidin-4-yl)-4H-benzo[4,5]imidazo[1,2-b]pyrazole-8-carboxamide]	–
–	1 to 100	1 to 100	CC(C)N1CCC(c2cnn3c2[nH]c2cc(F)cc(C(N)=O)c23)CC1 [Example 10, 6-fluoro-3-(1-isopropylpiperidin-4-yl)-4H-benzo[4,5]imidazo[1,2-b]pyrazole-8-carboxamide]	–
–	1 to 100	1 to 100	CCCN1CCC(c2cnn3c2[nH]c2cc(F)cc(C(N)=O)c23)CC1 [Example 12, 6-fluoro-3-(1-propylpiperidin-4-yl)-4H-benzo[4,5]imidazo[1,2-b]pyrazole-8-carboxamide]	–
–	1 to 100	101 to 1000	NCCN1CCC(c2cnn3c2[nH]c2cc(F)cc(C(N)=O)c23)CC1 [Example 13, 3-(1-(2-aminoethyl)piperidin-4-yl)-6-fluoro-4H-benzo[4,5]imidazo[1,2-b]pyrazole-8-carboxamide]	–
–	1 to 100	1 to 100	NC(=O)c1cc(F)cc2[nH]c3c(C4CCN(CCO)CC4)cnn3c12 [Example 16, 6-fluoro-3-(1-(2-hydroxyethyl)piperidin-4-yl)-4H-benzo[4,5]imidazo[1,2-b]pyrazole-8-carboxamide]	–
–	1 to 100	101 to 1000	CCN1CCCC(c2cnn3c2[nH]c2cc(F)cc(C(N)=O)c23)C1 (centres unmarked) [Example 17, 3-(1-ethylpiperidin-3-yl)-6-fluoro-4H-benzo[4,5]imidazo[1,2-b]pyrazole-8-carboxamide]	–
–	1 to 100	1 to 100	CCN1CCCC(c2cnn3c2[nH]c2cc(F)cc(C(N)=O)c23)CC1 (centres unmarked) [Example 18, 3-(1-ethylazepan-4-yl)-6-fluoro-4H-benzo[4,5]imidazo[1,2-b]pyrazole-8-carboxamide]	–
–	1 to 100	1 to 100	CN1CCCC(c2cnn3c2[nH]c2cc(F)cc(C(N)=O)c23)CC1 (centres unmarked) [Example 19, 6-fluoro-3-(1-methylazepan-4-yl)-4H-benzo[4,5]imidazo[1,2-b]pyrazole-8-carboxamide]	–
–	1 to 100	1 to 100	CN1CCC(c2cnn3c2[nH]c2cc(F)cc(C(N)=O)c23)C1 (centres unmarked) [Example 20, 6-fluoro-3-(1-methylpyrrolidin-3-yl)-4H-benzo[4,5]imidazo[1,2-b]pyrazole-8-carboxamide]	–
–	1 to 100	1 to 100	CCN1CCC(c2cnn3c2[nH]c2cc(F)cc(C(N)=O)c23)C1 (centres unmarked) [Example 21, 3-(1-ethylpyrrolidin-3-yl)-6-fluoro-4H-benzo[4,5]imidazo[1,2-b]pyrazole-8-carboxamide]	–
–	1 to 100	1 to 100	NC(=O)c1cc(F)cc2[nH]c3c(C4CCCN4)cnn3c12 (centres unmarked) [Example 23, 6-fluoro-3-(pyrrolidin-2-yl)-4H-benzo[4,5]imidazo[1,2-b]pyrazole-8-carboxamide]	–

The remaining lines, values behind:

SMILES	EC50 ([1]; HCC1937 cells, compound 30 min then 1 mM H2O2 10 min, read-out: cellular PARylation EC50) [nM]	IC50 [2] [nM]	EC50 [1, 3] [nM]	EC50 ([1]; Homo sapiens, HCC1937, read-out: cellular PARylation EC50) [nM]
C[C@]1(c2nc3c(C(N)=O)cccc3[nH]2)CCCN1 [ABT-888, veliparib, reference compound]	1 to 100	–	–	–
Cn1ncnc1[C@H]1c2n[nH]c(=O)c3cc(F)cc(c23)N[C@@H]1c1ccc(F)cc1 [BMN-673, reference compound]	–	–	–	1 to 100
NC(=O)c1cc(F)cc2[nH]c3c(C4CCN(CC5CC5)CC4)cnn3c12 [Example 5, 3-(1-(cyclopropylmethyl)piperidin-4-yl)-6-fluoro-4H-benzo[4,5]imidazo[1,2-b]pyrazole-8-carboxamide]	–	1 to 100	1 to 100	–
CC(C)(O)CN1CCC(c2cnn3c2[nH]c2cc(F)cc(C(N)=O)c23)CC1 [Example 6, 6-fluoro-3-(1-(2-hydroxy-2-methylpropyl)piperidin-4-yl)-4H-benzo[4,5]imidazo[1,2-b]pyrazole-8-carboxamide]	–	1 to 100	1 to 100	–
CC(C)(F)CN1CCC(c2cnn3c2[nH]c2cc(F)cc(C(N)=O)c23)CC1 [Example 7, 6-fluoro-3-(1-(2-fluoro-2-methylpropyl)piperidin-4-yl)-4H-benzo[4,5]imidazo[1,2-b]pyrazole-8-carboxamide]	–	1 to 100	1 to 100	–
NC(=O)c1cc(F)cc2[nH]c3c(C4CCN(C(=O)C5CC5)CC4)cnn3c12 [Example 8, 3-(1-(cyclopropylcarbonyl)piperidin-4-yl)-6-fluoro-4H-benzo[4,5]imidazo[1,2-b]pyrazole-8-carboxamide]	–	1 to 100	101 to 1000	–
NC(=O)c1cc(F)cc2[nH]c3c(C4CCN(C5COC5)CC4)cnn3c12 [Example 11, 6-fluoro-3-(1-(oxetan-3-yl)piperidin-4-yl)-4H-benzo[4,5]imidazo[1,2-b]pyrazole-8-carboxamide]	–	1 to 100	101 to 1000	–
CN(C)CCN1CCC(c2cnn3c2[nH]c2cc(F)cc(C(N)=O)c23)CC1 [Example 14, 3-(1-(2-(dimethylamino)ethyl)piperidin-4-yl)-6-fluoro-4H-benzo[4,5]imidazo[1,2-b]pyrazole-8-carboxamide]	–	1 to 100	1 to 100	–
COCCN1CCC(c2cnn3c2[nH]c2cc(F)cc(C(N)=O)c23)CC1 [Example 15, 6-fluoro-3-(1-(2-methoxyethyl)piperidin-4-yl)-4H-benzo[4,5]imidazo[1,2-b]pyrazole-8-carboxamide]	–	1 to 100	1 to 100	–
CC(C)N1CCC(c2cnn3c2[nH]c2cc(F)cc(C(N)=O)c23)C1 (centres unmarked) [Example 22, 6-fluoro-3-(1-isopropylpyrrolidin-3-yl)-4H-benzo[4,5]imidazo[1,2-b]pyrazole-8-carboxamide]	–	1 to 100	1 to 100	–
CCCN1CCCC1c1cnn2c1[nH]c1cc(F)cc(C(N)=O)c12 (centres unmarked) [Example 24, 6-fluoro-3-(1-propylpyrrolidin-2-yl)-4H-benzo[4,5]imidazo[1,2-b]pyrazole-8-carboxamide]	–	1 to 100	101 to 1000	–
CN1CCCC1c1cnn2c1[nH]c1cc(F)cc(C(N)=O)c12 (centres unmarked) [Example 25, 6-fluoro-3-(1-methylpyrrolidin-2-yl)-4H-benzo[4,5]imidazo[1,2-b]pyrazole-8-carboxamide]	–	1 to 100	1 to 100	–
NC(=O)c1cccc2cn(-c3ccc([C@@H]4CCCNC4)cc3)nc12 [MK-4827, niraparib, reference compound]	–	–	1 to 100	–
